Results published in patent US20090105282A1, “METHODS OF TREATING BENIGN PROSTATIC HYPERPLASIA OR LOWER URINARY TRACT SYMPTOMS BY USING PDE 5 INHIBITORS” (Schering-Plough Corporation, priority 2005, published 2009).

molecular target: PDE 5 (Homo sapiens, UniProt O76074); test: PDE 5 enzyme inhibition (PDE 5 IC50); type: biochemical

Row | SMILES | IC50 [nM]
1 | Cn1c(=O)c2c(nc(NC3CCCCC3)n2Cc2ccc(O)cc2)n(C)c1=O [Compound 37] | 5 to 10
2 | CCn1c(=O)c2c(nc(NC3CCCCC3)n2Cc2cccc(O)c2)n(CC)c1=O [Compound 170] | ≤ 5
3 | CCn1c(=O)c2c(nc(NC3CCCCC3)n2Cc2ccc(OC)c(Cl)c2)n(CCO)c1=O [Compound 105] | ≤ 5
4 | Cc1cc(Cn2c(NC3CCCCC3)nc3c2c(=O)n(C)c(=O)n3C)ccc1O [Compound 147] | 15 to 100
5 | CCn1c(=O)c2c(nc(NC3CCCCC3)n2Cc2ccc(O)c(Cl)c2)n(CCO)c1=O [Compound 107] | ≤ 5
6 | CCn1c(=O)c2c(nc(N[C@@H]3CCC[C@H]3O)n2Cc2ccc(OC)c(Cl)c2)n(CCO)c1=O [Compound 106] | ≤ 5
7 | CCn1c(=O)c2c(nc(N[C@@H]3CCC[C@H]3O)n2Cc2ccc(OC)c(Br)c2)n(CC)c1=O [Compound 123] | ≤ 5
8 | CCn1c(=O)c2c(nc(NC3CCCCC3)n2Cc2ccc(OC)c(Br)c2)n(CCO)c1=O [Compound 117] | ≤ 5
9 | CCn1c(=O)c2c(nc(NC3CCCC3)n2Cc2ccc(O)cc2)n(C)c1=O [Compound 79] | 5 to 10
10 | CCn1c(=O)c2c(nc(N[C@@H]3CCC[C@H]3O)n2Cc2ccc(O)c(Br)c2)n(CCO)c1=O [Compound 118] | ≤ 5
11 | CCn1c(=O)c2c(nc(NC3CCCCC3)n2Cc2ccc(O)c(C)c2)n(CC)c1=O [Compound 169] | ≤ 5
12 | CCn1c(=O)c2c(nc(NC3CCCCC3)n2Cc2ccc(S(N)(=O)=O)cc2)n(CC)c1=O [Compound 119] | ≤ 5

Other lines, results leading:

Row | IC50 [nM] | SMILES
13 | ≤ 5 | CCn1c(=O)c2c(nc(NC3CCCCC3)n2Cc2ccc(O)cc2)n(CCO)c1=O [Compound 104]
14 | ≤ 5 | CCn1c(=O)c2c(nc(NC3CCCCC3)n2Cc2ccc(OC)cc2)n(CCO)c1=O [Compound 103]
15 | ≤ 5 | CCn1c(=O)c2c(nc(NC3CCCCC3)n2Cc2ccc(OC)c(Br)c2)n(CC)c1=O [Compound 122]
16 | 15 to 100 | COc1ccc(Cn2c(NC3CC4CCC3C4)nc3c2c(=O)n(C)c(=O)n3C)cc1 (stereo not drawn) [Compound 77]
17 | ≤ 5 | CCN(CC)CCn1c(=O)n(CC)c(=O)c2c1nc(NC1CCCCC1)n2Cc1ccc(OC)c(Br)c1 [Compound 187]
18 | 15 to 100 | Cn1c(=O)c2c(nc(NC3CCCCC3)n2Cc2cccc(O)c2)n(C)c1=O [Compound 146]
19 | ≤ 5 | CCn1c(=O)c2c(nc(NC3CCOCC3)n2Cc2ccc(S(N)(=O)=O)cc2)n(CC)c1=O [Compound 188]
20 | 15 to 100 | Cn1c(=O)c2c(nc(NC3CCCCC3)n2Cc2ccccc2Cl)n(C)c1=O [Compound 148]
21 | ≤ 5 | CCn1c(=O)c2c(nc(NC3CCCCC3)n2Cc2ccc(O)c(Br)c2)n(CCO)c1=O [Compound 116]
22 | ≤ 5 | CCn1c(=O)c2c(nc(NC3CCCCC3)n2Cc2ccc3c(c2)OCO3)n(CC)c1=O [Compound 168]
23 | ≤ 5 | CCn1c(=O)c2c(nc(N[C@@H]3CCCC[C@@H]3O)n2Cc2ccc(OC)c(Br)c2)n(CC)c1=O [Compound 124]
24 | ≤ 5 | CCn1c(=O)c2c(nc(NC3CCOCC3)n2Cc2ccc(OC)c(Br)c2)n(CCO)c1=O [Compound 186]
